Experimental data as given in patent US6465631B1, “Lipid a 4′ kinase” (Duke University, priority 1997, dated 2002).

Molecular target: T1, lipid A 4′ kinase (Escherichia coli, UniProt P27300)
T1 construct: The first primer introduces a Nde I site at the start codon of orfE, and the second primer introduces a BamHl site downstream of the stop codon; made in house; host or cells: E. coli BLR(DE3)pLysS/pJK2 (pET3a, T7 promoter); Controls with chromosomal kinase only: BR7 membranes and BLR(DE3)pLysS/pET3a fractions
Assay: 4′ kinase assay method II ([γ-32P]ATP donor, lipid acceptor, TLC)
Type: biochemical, E. coli
Details: for 32P from input [γ-32P]-ATP incorporated into 4′-phosphorylated product (yield): 0.6 μM [γ-32P]ATP, 100 μM lipid acceptor, 10 min, 30° C.; for utilisation as substrate of the 4′ kinase (in words): recombinant, overexpressed 4′ kinase (BLR(DE3)pLysS/pJK2 membranes)
Experimental: FIG. 12: Effective phosphorylation of DS-1-P and DS-1-P analogs with recombinant, overproduced 4′ kinase. Washed membranes from strain BR7 and BLR(DE3)pLysS/pJK2 were used, as indicated, in 4′ kinase assays containing 100 μM of the indicated DS-1-P analog, 0.6 μM [γ-^32P] ATP, 50 mM Tris, pH 8.5, 5 mM MgCl2, 1% NP-40, 1 mg/ml cardiolipin and 0.5 mg/ml washed membranes. After a 10 minute incubation at 30° C., 5 μl of the reaction was spotted onto a Silica Gel 60 TLC plate and developed in chloroform:pyridine:formic acid:water (30:70:16:10 v/v). The plate was dried, exposed to a PhosphorImager screen and visualized using ImageQuant software. Arrows indicate the products of the reactions. If the native substrate DS-1-P is present in the reaction, [4′-^32P]-lipid IVA is formed. When 3-aza-DS-1-P, base-treated DS-1-P, or base-treated 3-aza-DS-1-P are present, 4′ phosphorylated products a, b and c are formed, respectively. The migration of each of these products is slower than the non-phosphorylated substrate analog, consistent with the phosphate incorporation. As in FIG. 9, BLR/pJK2 is an abbreviation for BLR(DE3)pLysS/pJK2, and NE indicates the no enzyme control. […] Minor ^32P containing lipids generated by membranes of BLR(DE3)pLysS/pJK2 in the absence of any acceptor substrate arise by the action of diglyceride kinase on endogenous glycerophospholipids (see especially Lane 6). The diglyceride kinase is inactivated by mutation in strain BR7 (Hampton et al, Methods in Enzymology 209:466 (1992)).
Assays for 4′ kinase activity. Two methods for analyzing 4′ kinase activity of various protein fractions were employed. The first (method I) utilizes DS-1-^32P as the labeled substrate. Typically, 100 μM DS-1-^32P (1000 cpm/nmol), 1 mg/ml cardiolipin, 50 mM Tris, pH 8.5, 5 mM ATP, 1% NP-40, and 5 mM MgCl2 are mixed with 0.5-500 μg/ml protein fraction and incubated at 30° C. for various times. Reactions were stopped by spotting a portion of the reaction onto a Silica Gel 60 thin layer chromatography plate. Plates were developed in chloroform:methanol:water:acetic acid (25:15:4:2, v/v) and analyzed as described above. Method II (which is not intended for the quantitative determination of specific activities) utilizes [γ-^32P] ATP (˜8×10^6 cpm/nmol) as the labeled substrate. The reaction conditions are exactly the same as for method I except that the ATP concentration is lowered to 0.6 μM and only non-radioactive DS-1-P (final concentration of 100 μM) is added. The reactions were stopped as described above, and plates were developed in chloroform:pyridine:formic acid:water (30:70:16:10, v/v).
Each lipid analog was tested as a 4′ kinase substrate using recombinant, overexpressed 4′ kinase in conjunction with the method II assay conditions (0.6 μM [γ-^32P]-ATP as the phosphate donor and 100 μM lipid acceptor). DS-1-P becomes phosphorylated to form [4′-^32P]-lipid IVA by BR7 membranes (containing wild-type kinase levels), but only with a yield of ˜0.5% (FIG. 11, lane 2). When BLR(DE3)pLysS/pJK2 membranes are used (FIG. 12, lane 7) more than 50% of the ^32P is incorporated into [4′-^32P]-lipid IVA. […] Products (b) and (c) are formed from base-treated DS-1-P and base treated 3-aza-DS-1-P, respectively.

T1 sequence (P27300 whole entry): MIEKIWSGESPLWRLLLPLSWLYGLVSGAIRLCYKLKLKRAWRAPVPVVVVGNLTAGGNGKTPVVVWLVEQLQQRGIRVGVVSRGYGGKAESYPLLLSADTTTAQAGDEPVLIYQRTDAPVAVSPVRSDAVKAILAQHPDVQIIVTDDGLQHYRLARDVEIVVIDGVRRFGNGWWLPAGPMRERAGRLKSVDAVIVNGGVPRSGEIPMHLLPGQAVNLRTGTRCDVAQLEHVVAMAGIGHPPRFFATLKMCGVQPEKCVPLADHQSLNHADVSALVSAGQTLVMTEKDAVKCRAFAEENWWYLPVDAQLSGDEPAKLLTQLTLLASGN

Molecule	32P from input [γ-32P]-ATP incorporated into 4′-phosphorylated product (yield) (BLR(DE3)pLysS/pJK2 membranes (recombinant, overexpressed 4′ kinase))	32P from input [γ-32P]-ATP incorporated into 4′-phosphorylated product (yield) (BR7 membranes (wild-type kinase levels))	utilisation as substrate of the 4′ kinase (in words)
CCCCCCCCCCC[C@@H](O)CC(=O)N[C@H]1[C@H](OC[C@H]2O[C@H](OP(=O)(O)O)[C@H](NC(=O)C[C@H](O)CCCCCCCCCCC)[C@@H](OC(=O)C[C@H](O)CCCCCCCCCCC)[C@@H]2O)O[C@H](CO)[C@@H](O)[C@@H]1OC(=O)C[C@H](O)CCCCCCCCCCC [DS-1-P, tetraacyldisaccharide-1-phosphate]	more than 50%	~0.5%	large amount
2,3-diacyl-glucosamine-1-phosphate [Lipid X]	–	–	not substrates
UDP-2,3-diacyl-glucosamine [UDP-diacylglucosamine]	–	–	not substrates
